# Laboratory results as given in patent publication US12655144B2, “Method for producing heterocyclic compound” (TAKEDA PHARMACEUTICAL COMPANY LIMITED, priority 2020, dated 2026).
# Assays:
# OCI-Ly3 cells = test: Measurement of growth inhibitory activity using OCI-Ly3 cells; type: cell-based; conditions: Homo sapiens, 144 h, 3 μM compound, 6 days, Cell Titer-Glo, read-out: Cell growth inhibition rate (%) at 3 μM compound
# Description: Measurement of Growth Inhibitory Activity Using OCI-Ly3 Cells
# OCI-Ly3 cells were seeded in a cell culture medium IMDM (Fujifilm Wako Pure Chemical Corporation) containing 20% FCS (fetal calf serum, Thermo Fisher Scientific) and monothioglycerol (Fujifilm Wako Pure Chemical Corporation) so as to be at 1.25×10^3 cells/well on a 96-well plate. […] Subsequently, the luminescence value was measured with Envision (PerkinElmer) on the day of seeding. […] Subsequently, the luminescence value was measured in the same manner. The inhibition rate (%) of the test compound on OCI-Ly3 cell growth was calculated by the following formula. Cell growth inhibition rate (%)=(1−(Luminescent value on day 6 of test compound treatment−Luminescent value before test compound treatment)/(Luminescent value on day 6 without compound addition−Luminescent value before compound treatment))×100
# [1] = system: OCI-Ly3 subcutaneously transplanted tumor; test: Antitumor effect on OCI-Ly3 cell-bearing cancer model; type: in vivo, NOG female mice; conditions: 10 mg/kg orally twice daily for 3 weeks; average tumor volume increase ratio vs control; NOG mice bearing OCI-Ly3
# Description: Antitumor Effect on OCI-Ly3 Cell-Bearing Cancer Model Human diffuse large-cell B-cell lymphoma cells OCI-Ly3 (DSMZ, German Collection of Microorganisms and Cell Cultures) were suspended in a Matrigel (BD Biosciences):HBSS (Thermo Fisher Scientific)=1:1 solution, and 1×10^7 cells were transplanted subcutaneously into the abdomen of NOG female mice (CLEA Japan, Inc.). The tumor diameter of the engrafted tumor was measured, and the tumor volume was calculated by the following formula. Tumor volume=major axis×minor axis×minor axis×(1/2) Individuals with the engrafted tumor having a tumor volume of about 120 mm^3 were selected, and 6 animals per group were used in the experiment. A suspension of the test compound in 0.5% methylcellulose solution (Fujifilm Wako Pure Chemical Corporation) was orally administered at a dose of 10 mg/kg (10 mL/kg) twice daily for 3 weeks. The tumor volume was measured on the day before the start of administration and every 3 to 4 days over time, and the tumor diameter was finally measured the day after the end of administration for 21 days to calculate the tumor volume. The tumor growth of the test compound-administered group compared with the control-administered group was calculated by the following formula as an average tumor volume increase ratio T/C. […]
Compound,inhibition at 3 µM (OCI-Ly3 cells) [%],T/C (%) [1] [%]
"CO[C@@H](C)c1c(NC(=O)Nc2cnc(-n3nccn3)c(C(F)(F)F)c2)cnc2ccc(Cl)nc12 [Compound X1, (S)—N-(6-Chloro-4-(1-methoxyethyl)-1,5-naphthyridine-3-yl)-N′-(6-(2H-1,2,3-triazole-2-yl)-5-(trifluoromethyl)pyridine-3-yl)urea]",97,2.0
"CO[C@@H](C)c1c(NC(=O)Nc2cnc(-n3nccn3)c(C(F)(F)F)c2)cnc2ccc(C)nc12 [Compound X2, (S)—N-(4-(1-methoxyethyl)-6-methyl-1,5-naphthyridine-3-yl)-N′-(6-(2H-1,2,3-triazole-2-yl)-5-(trifluoromethyl)pyridine-3-yl)urea]",99,38.7
